Assay results from US10272056B2, “Treatment for mitochondrial diseases” (The George Washington University a Congressionally …, priority 2015, dated 2019).

Tests used:
[1] = tested on: MELAS fibroblasts; test: Mitochondrial mass, morphology and networking (MTG live cell confocal analysis); format: cell-based, human; conditions: three-day exposure; NaBt 2.5 mM, TBN 1.5 mM, AN9 300 μM
From the text: FIG. 17A-17C are images from microscopy and graphs showing that butyrates rescue the mitochondrial phenotype in MELAS fibroblasts. (A) Confocal analysis of healthy and MELAS fibroblasts treated as indicated and labeled with the MTG dye; scale bar=10 (B) Analysis of the mitochondrial mass; n=3 (60 cells per experiment; ^‡p<0.05, unpaired T-test *p<0.05, paired T-test). (C) Analysis of Δψm (^‡p<0.05, unpaired T-test; *p<0.05, paired T-test).
Butyrates rescue the mitochondrial mass, morphology, networking, membrane potential, and cellular ATP levels in MELAS fibroblasts. Skin fibroblasts from two MELAS patients and from a healthy subject as a control were used. Dose-dependent analyses of butyrates to determine their best concentrations for eliciting an optimal mitochondrial response without cellular toxicity was performed. Healthy and MELAS fibroblasts were treated with PBS, NaBt (2.5 mM), TBN (1.5 mM), or AN9 (300 μM) for three days before labeling with the MTG dye for live cell confocal analysis.
Butyrates rescue the mitochondrial mass, morphology, networking, and membrane potential in MELAS fibroblasts. Skin fibroblasts from two MELAS patients and from a healthy subject as a control were used. Dose-dependent analyses of butyrates was performed to determine their best concentrations for eliciting an optimal mitochondrial response without cellular toxicity. Healthy and MELAS fibroblasts were treated with PBS, NaBt (2.5 mM), TBN (1.5 mM), or AN9 (300 μM) for three days before labeling with the MTG dye for live cell confocal analysis.

[2] = tested on: neuronal cells; test: Electron microscopy of mitochondria; format: cell-based; conditions: NaBt-treated vs control cells
Procedure: FIG. 9A-9C are graphs and images from microscopy showing that NaBt enhances mitochondrial bioenergetics. (A) Flow cytometric analysis of Δψm; *p<0.001. (B) ATP levels in live cells using a Mg^2+-based assay; *p<0.001. (C) Electron microscopy of mitochondria in control and NaBt-treated cells; scale bar=200 nm.
NaBt increases mitochondrial membrane potential (Δψm) and ATP levels. The MTR-based data raised the question: could NaBt also enhance mitochondrial bioenergetics? Δψm was assessed by live cell confocal microscopy and flow cytometry using the TMRM dye, which accumulates in the mitochondrial matrix in a Δψm-dependent fashion. A 1.5-fold increase in Δψm in NaBt-treated cells was observed (FIG. 9A). To test whether enhanced Δψm led to increased ATP output, ATP levels were monitored using the live cell Mg^2+-based ATP assay, which is compatible with the TMRM dye, allowing simultaneous recordings. A 1.6-fold increase in ATP levels in NaBt-treated cells was observed (FIG. 9B), in line with the MTR- and TMRM-based findings and the elongated mitochondrial morphology.

[3] = tested on: E17.5 hippocampal neurons; test: NaBt dose-dependent acetylation of nuclear proteins in neurons; format: cell-based; conditions: E17.5 hippocampal neurons at 1DIV
From the text: FIG. 4A-4E are images from microscopy and graphs showing NaBt dose-dependent acetylation and cellular toxicity in PC12-ND6 cells and embryonic E17.5 hippocampal neurons. (A) Confocal micrographs of PC12-ND6 cells (referred to as ND6) grown in the absence or presence of NaBt for three days and labeled with an anti-acetylated Lys antibody (AcLys; green). Scale bar represents 10 μm. […] Results are expressed as relative fluorescence intensity±S.D. (n=250 cells per NaBt concentration; * p=0.0001). (C) Effect of NaBt on PC12-ND6 cell viability. […] Mean±SEM (n=250 cells for each experimental condition; * p=0.0001). (D) Confocal micrographs of NaBt dose-dependent acetylation in E17.5 hippocampal neurons (AcLys; green). Scale bar represents 10 μm.
Sodium butyrate increases protein acetylation in a dose-dependent manner without inducing cellular toxicity. A dose response analysis was performed to determine the optimal concentration of sodium butyrate (NaBt) for inducing maximal acetylation levels with minimal cellular toxicity. PC12-ND6 cells were treated with different concentrations of NaBt (2 mM, 5 mM, and 10 mM) for three days before assessing the degree of acetylated lysine residues by immunocytochemistry and cell viability by live-cell confocal microscopy using the Nuclear-ID™ stain.

[4] = tested on: MELAS fibroblasts; test: Relative cellular ATP levels (magnesium green dye); format: cell-based, human
Procedure: FIG. 19 is a graph showing that NaBt augments the relative cellular ATP levels in MELAS fibroblasts. The relative cellular ATP content was examined by a fluorescent probe, magnesium green (Mg Gr). MELAS fibroblasts were treated for 6 and 24 hours with NaBt (2.5 m M) before being labeled with Mg-Gr.
To assess relative cellular ATP levels in live MELAS fibroblasts, the fluorescent magnesium green (Mg-Gr) dye, which has been successfully employed in live patient fibroblasts, was used. Fluorescence emission from the Mg-Gr dye is directly proportional to the concentration of intracellular free Mg2+ concentration. Since the affinity of Mg2+ for ATP is about ten times higher than its affinity for ADP or AMP, the fluorescence intensity is inversely correlated with the intracellular levels of ATP. A time course exposure to NaBt ([…]) was performed using MELAS fibroblasts from one patient that has been comprehensively evaluated in terms of mitochondrial mass, mitochondrial membrane potential, and mitochondrial dynamics and networking (FIGS. 17 and 18). […] Thus, butyrates augment the functional mitochondrial mass in dermal MELAS fibroblasts, thereby reversing their deficits in mitochondrial mass and bioenergetics capacity.

Structure (SMILES): CCCC(=O)[O-].[Na+] [NaBt, sodium butyrate]
- mitochondrial mass, morphology, and networking [1]: restored normal mitochondrial mass, morphology, and networking
- mitochondrial micro-architecture [2]: increased numbers of elongated cristae
- NaBt concentration resulting in near maximal acetylation levels of nuclear proteins [3]: 2 mM
- relative cellular ATP levels ([4]; 24 hours NaBt 2.5 mM): became more accentuated
- relative cellular ATP levels ([4]; first 24 hours of NaBt (2.5 mM) treatment): steady increase in relative cellular ATP levels
- relative cellular ATP levels ([4]; six hours NaBt 2.5 mM): increase in relative cellular ATP levels
